Where “and” joins values, the source holds several entries; their conditions need not be identical. Equal values may be shown once. Entries after “also recorded” stand apart in the source; their conditions may differ.
Experiments:
acetylated H4 = assay: Western blot of hippocampal acetylated H4 after fear conditioning (TSA); format: in vivo, mice
Protocol: We will also test if defects seen in APP/PS1 mice, compared to WT littermates, are due to epigenetic effects. […] (each herein incorporated by reference in its entirety). Acetylation of H4 in hippocampus from WT and APP/PS1 animals was measured. Vehicle control solution was administered i.p. 2 hrs before FC training. 1 hr after contextual FC, the APP/PS1 and WT mice were euthanized and hippocampi were extracted. […] Whether HDAC inhibition might rescue the histone 4 acetylation levels defect observed in APP/PS1 mice was also tested. Injection of TSA (2 μg/g body weight; i.p) 2 hours prior to contextual fear conditioning enhanced H4 acetylation of APP/PS1 mice (FIG. 22). Without being bound by theory, AD is likely to be a disease with an epigenetic motif and HDAC inhibitors can elevate decreased levels of histone 4 in an AD mouse model.
APP/PS1 mice display a reduced endogenous level of histone 4 acetylation in response to a learning task. Given that HDAC inhibitors are known to acetylate other molecules besides histones [B49] […] We measured acetylation of H4 in hippocampus from 3 to 4 month old wild-type (WT) and APP/PS1 animals, after training for fear conditioning. […]

HDAC10 = target: T1, HDAC10 (Homo sapiens, UniProt Q969S8); assay: HDAC10 fluorogenic activity assay; details: for % Activity: Repeat1/Repeat2, listed as OA2
T1 sequence (Q969S8 1-669): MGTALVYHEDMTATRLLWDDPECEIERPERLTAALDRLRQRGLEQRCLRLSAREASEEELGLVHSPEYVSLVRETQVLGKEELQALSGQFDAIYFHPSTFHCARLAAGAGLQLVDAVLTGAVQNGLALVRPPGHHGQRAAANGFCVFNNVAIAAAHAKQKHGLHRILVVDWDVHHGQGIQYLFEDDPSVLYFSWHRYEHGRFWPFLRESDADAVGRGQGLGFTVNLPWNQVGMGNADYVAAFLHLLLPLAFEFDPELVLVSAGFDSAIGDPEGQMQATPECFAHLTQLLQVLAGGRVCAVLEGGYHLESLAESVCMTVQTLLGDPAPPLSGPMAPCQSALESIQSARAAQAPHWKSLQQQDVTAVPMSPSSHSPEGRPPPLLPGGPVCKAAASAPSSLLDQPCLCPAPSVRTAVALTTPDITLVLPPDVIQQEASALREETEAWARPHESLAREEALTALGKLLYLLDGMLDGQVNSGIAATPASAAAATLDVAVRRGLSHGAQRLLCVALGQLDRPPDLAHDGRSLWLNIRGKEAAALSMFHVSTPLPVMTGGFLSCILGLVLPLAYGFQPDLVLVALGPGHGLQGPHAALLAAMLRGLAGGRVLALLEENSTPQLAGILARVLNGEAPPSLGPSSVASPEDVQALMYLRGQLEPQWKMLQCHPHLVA

Row | SMILES | H4 acetylation in hippocampus of APP/PS1 mice (acetylated H4; TSA 2 mg/kg i.p. 2 hours prior to fear conditioning, 1 hour after training) | H4 acetylation levels in WT mice (acetylated H4; TSA 2 mg/kg i.p., vs vehicle-treated WT) | IC50 (HDAC10) [µM] | % Activity (HDAC10; OA2 Log[nM] 0.5) | % Activity (HDAC10; OA2 Log[nM] 1.0) | % Activity (HDAC10; OA2 Log[nM] 1.5) | % Activity (HDAC10; OA2 Log[nM] 2.0) | % Activity (HDAC10; OA2 Log[nM] 2.5) | % Activity (HDAC10; OA2 Log[nM] 3.0) | % Activity (HDAC10; OA2 Log[nM] 3.5) | % Activity (HDAC10; OA2 Log[nM] 4.0) | % Activity (HDAC10; OA2 Log[nM] 4.5) | % Activity (HDAC10; OA2 Log[nM] 5.3)
1 | CC(/C=C/C(=O)NO)=C\[C@@H](C)C(=O)c1ccc(N(C)C)cc1 [TSA, trichostatin A] | enhanced; also recorded: rescued; also recorded: enhancement | increased | – | – | – | – | – | – | – | – | – | – | –
2 | CCOc1cccc(OCCN(C)C)c1C(=O)Nc1ccc(Cl)c(C(F)(F)F)c1 [YF2] | – | – | > 200 | 91.08% and 101.05% | 103.77% and 104.31% | 105.57% and 103.85% | 103.04% and 105.77% | 104.90% and 105.64% | 99.94% and 104.64% | 96.95% and 106.25% | 96.50% and 102.89% | 95.38% and 102.89% | 116.56% and 86.05%
